In ChEMBL document CHEMBL1201862, “PubChem BioAssay data set” (2004):
The source made the active and inactive calls. Non-standard residues stand in square brackets, D forms with d. Residues, ends and D or L forms follow the SMILES beside them. ξ: configuration not given here. ξLac(3-iPr) = CC(C)CC(O)C(=O)O; NMeV = CN[CH](C(=O)O)C(C)C; NMeA = CN[CH](C)C(=O)O; βAla = NCCC(=O)O

Key:
Escherichia coli [1] = assay: microbe, parasite or virus in culture
Vero [2] = assay: cells; type: functional, cell-based; settings: Chlorocebus sabaeus
Escherichia coli [3] = assay: microbe, parasite or virus in culture; remark: listed apart in the source
Prothrombin = Prothrombin (Bos taurus, UniProt P00735); assay: thrombin inhibition, dose response, biochemical, fluorescence polarization, uHTS hits (AID 602369); type: functional
[4] = target: 26S proteasome non-ATPase regulatory subunit 14 (Homo sapiens, UniProt O00487); assay: inhibition of proteasome subunit RPN11 – biochemical, fluorescence polarization, uHTS hits, confirmation (AID 602368); type: functional
[5] = target: 72 kDa type IV collagenase (Homo sapiens, UniProt P08253); assay: Dose Response validation of uHTS RPN11 inhibitor hits using a MMP-2 Fluorescence assay.; type: functional
INS1 = assay: inhibitors of cytokine-induced nitrite release, dose response, cell-based, Griess absorbance, INS-1E, dry powder (AID 488866); type: functional; settings: Rattus norvegicus
[6] = target: T1, Rac GTPase-activating protein 1 (Homo sapiens, UniProt Q9H0H5); assay: MgcRacGAP GTPase-activating activity inhibitors, confirmation, biochemical, ADP Hunter fluorescence, primary and confirmatory (AID 624330); type: functional
T1 sequence (Q9H0H5 whole entry): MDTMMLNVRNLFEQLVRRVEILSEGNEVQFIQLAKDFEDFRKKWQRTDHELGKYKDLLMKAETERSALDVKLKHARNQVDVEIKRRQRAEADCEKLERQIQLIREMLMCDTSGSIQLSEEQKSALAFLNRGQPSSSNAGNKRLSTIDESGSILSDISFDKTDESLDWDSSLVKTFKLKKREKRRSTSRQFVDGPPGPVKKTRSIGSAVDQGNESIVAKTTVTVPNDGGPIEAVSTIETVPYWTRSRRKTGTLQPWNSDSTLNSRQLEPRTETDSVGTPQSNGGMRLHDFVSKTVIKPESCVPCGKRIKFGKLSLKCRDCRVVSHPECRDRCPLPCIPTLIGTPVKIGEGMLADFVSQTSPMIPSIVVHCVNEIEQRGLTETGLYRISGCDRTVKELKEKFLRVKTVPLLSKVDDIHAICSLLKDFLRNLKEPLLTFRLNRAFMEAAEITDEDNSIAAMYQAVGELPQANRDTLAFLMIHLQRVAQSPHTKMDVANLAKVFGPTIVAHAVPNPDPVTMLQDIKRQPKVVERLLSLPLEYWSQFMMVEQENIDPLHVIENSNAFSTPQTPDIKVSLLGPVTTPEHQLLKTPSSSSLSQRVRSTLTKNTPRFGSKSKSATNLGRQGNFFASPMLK

[7] = target: T2, Mannose-6-phosphate isomerase (Homo sapiens, UniProt P34949); assay: human PMI inhibitors, high substrate, primary screen, biochemical, fluorescence intensity, high mannose 6-phosphate (AID 1220)
T2 sequence (P34949 whole entry): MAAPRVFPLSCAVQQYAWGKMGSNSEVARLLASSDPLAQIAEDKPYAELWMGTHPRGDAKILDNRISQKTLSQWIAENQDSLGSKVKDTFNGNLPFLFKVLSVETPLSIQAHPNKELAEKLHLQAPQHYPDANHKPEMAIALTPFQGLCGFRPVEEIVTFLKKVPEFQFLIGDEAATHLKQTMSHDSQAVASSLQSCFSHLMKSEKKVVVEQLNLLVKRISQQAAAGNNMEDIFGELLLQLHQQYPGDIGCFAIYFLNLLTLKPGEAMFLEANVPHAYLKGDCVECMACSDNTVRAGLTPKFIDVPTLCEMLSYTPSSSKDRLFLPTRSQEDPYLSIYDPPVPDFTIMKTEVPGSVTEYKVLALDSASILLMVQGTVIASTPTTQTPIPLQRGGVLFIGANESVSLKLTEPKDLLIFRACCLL

[8] = target: T3, High affinity choline transporter 1 (Homo sapiens, UniProt Q9GZV3); assay: CHT inhibitors, dose response, cell-based, 5-point CRC, membrane potential dye (AID 504840); type: functional
T3 sequence (Q9GZV3 whole entry): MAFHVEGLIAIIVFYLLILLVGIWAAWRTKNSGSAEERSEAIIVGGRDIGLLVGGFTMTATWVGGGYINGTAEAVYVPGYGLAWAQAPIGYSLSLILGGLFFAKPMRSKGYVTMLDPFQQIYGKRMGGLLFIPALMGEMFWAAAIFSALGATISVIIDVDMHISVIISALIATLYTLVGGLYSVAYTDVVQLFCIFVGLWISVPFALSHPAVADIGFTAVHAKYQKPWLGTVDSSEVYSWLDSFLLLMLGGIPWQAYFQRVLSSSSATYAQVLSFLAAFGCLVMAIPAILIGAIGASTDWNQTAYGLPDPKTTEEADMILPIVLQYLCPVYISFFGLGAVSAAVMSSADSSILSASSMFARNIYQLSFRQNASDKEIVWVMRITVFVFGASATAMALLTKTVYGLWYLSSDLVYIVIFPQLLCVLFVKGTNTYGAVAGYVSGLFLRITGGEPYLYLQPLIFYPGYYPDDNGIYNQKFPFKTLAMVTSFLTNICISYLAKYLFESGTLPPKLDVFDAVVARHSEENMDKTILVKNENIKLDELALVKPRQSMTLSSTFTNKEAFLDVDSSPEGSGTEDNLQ

[9] = target: 5-hydroxytryptamine receptor 5A (Homo sapiens, UniProt P47898); assay: Counterscreen for agonists of OPRM1-OPRD1 heterodimerization: luminescence-based cell-based high throughput dose response assay to identify agonists of 5-hydroxytryptamine (serotonin) 5A receptor (HTR5A). [Related pubchem assays (depositor defined):AID504326, AID504355, AID504692, AID504904, AID504905]; type: functional
[10] = target: Delta-type opioid receptor (Homo sapiens, UniProt P41143); assay: Counterscreen for agonists of heterodimerization of the mu 1 (OPRM1) and delta 1 (OPRD1) opioid receptors: Luminescence-based cell-based high throughput dose response assay to identify agonists of OPRD1 homodimerization. [Related pubchem assays (depositor defined):AID504326, AID504355, AID504692, AID504904, AID504905]; type: functional
[11] = target: T4, DNA repair protein RAD52 homolog (Homo sapiens, UniProt P43351); type: functional, biochemical
T4 sequence (P43351 whole entry): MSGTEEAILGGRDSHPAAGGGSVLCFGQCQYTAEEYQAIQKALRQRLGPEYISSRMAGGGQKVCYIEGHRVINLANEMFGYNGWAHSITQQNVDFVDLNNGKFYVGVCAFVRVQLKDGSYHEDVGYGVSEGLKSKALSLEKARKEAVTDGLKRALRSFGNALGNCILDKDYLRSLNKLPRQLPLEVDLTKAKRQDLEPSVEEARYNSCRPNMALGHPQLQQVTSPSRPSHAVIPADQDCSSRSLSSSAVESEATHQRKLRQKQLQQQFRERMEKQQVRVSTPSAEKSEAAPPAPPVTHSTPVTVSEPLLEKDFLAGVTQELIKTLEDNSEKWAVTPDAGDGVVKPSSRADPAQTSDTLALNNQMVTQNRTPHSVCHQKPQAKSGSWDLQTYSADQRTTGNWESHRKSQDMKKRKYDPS

Mu-type opioid receptor = Mu-type opioid receptor (Homo sapiens, UniProt P35372); assay: Counterscreen for agonists of heterodimerization of the mu 1 (OPRM1) and delta 1 (OPRD1) opioid receptors: Luminescence-based cell-based high throughput dose response assay to identify agonists of OPRM1 homodimerization.; type: functional;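 note: U2OS cells expressing OPRM1 and beta-arrestin as split beta-galactosidase partners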
Vero [12] = assay: cells; type: functional; settings: Chlorocebus sabaeus
Cytochrome P450 3A4 = Cytochrome P450 3A4 (Homo sapiens, UniProt P08684); settings: Potency;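 note: confirmatory qHTS run detecting inhibitors and substrates of CYP3A4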
[13] = Shn3 3'UTR reporter inhibitors, dose response, cell-based, Clone20 osteoblasts, firefly luciferase, cherry-picked (AID 624132); type: functional;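 note: firefly luciferase luminescence from reporter carrying the Shn3 3'UTR in osteoblasts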
[14] = HepG2 cell cytotoxicity, dose response, cytotoxicity control for Shn3 inhibitor project, CellTiter-Glo, cherry-picked (AID 624134); type: functional, cell-based
[15] = control 3'UTR Renilla luciferase suppression, dose response, counter-screen for Shn3 inhibitor project, cell-based, Clone20-Shn3RL, cherry-picked (AID 624133); type: functional
[16] = target: Induced myeloid leukemia cell differentiation protein Mcl-1 (Homo sapiens, UniProt Q07820); type: functional
Chain of Induced myeloid leukemia cell differentiation protein Mcl-1 (Q07820 whole entry): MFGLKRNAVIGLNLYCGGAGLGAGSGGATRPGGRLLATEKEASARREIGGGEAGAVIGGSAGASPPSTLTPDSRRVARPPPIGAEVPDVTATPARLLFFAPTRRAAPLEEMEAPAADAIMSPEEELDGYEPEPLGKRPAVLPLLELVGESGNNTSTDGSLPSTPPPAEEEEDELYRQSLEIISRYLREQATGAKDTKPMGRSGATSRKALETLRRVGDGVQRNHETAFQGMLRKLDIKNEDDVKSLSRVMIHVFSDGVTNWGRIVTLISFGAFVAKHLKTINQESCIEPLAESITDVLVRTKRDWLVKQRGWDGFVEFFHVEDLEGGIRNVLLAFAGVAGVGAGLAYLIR

Chain of 26S proteasome non-ATPase regulatory subunit 14 (O00487 whole entry): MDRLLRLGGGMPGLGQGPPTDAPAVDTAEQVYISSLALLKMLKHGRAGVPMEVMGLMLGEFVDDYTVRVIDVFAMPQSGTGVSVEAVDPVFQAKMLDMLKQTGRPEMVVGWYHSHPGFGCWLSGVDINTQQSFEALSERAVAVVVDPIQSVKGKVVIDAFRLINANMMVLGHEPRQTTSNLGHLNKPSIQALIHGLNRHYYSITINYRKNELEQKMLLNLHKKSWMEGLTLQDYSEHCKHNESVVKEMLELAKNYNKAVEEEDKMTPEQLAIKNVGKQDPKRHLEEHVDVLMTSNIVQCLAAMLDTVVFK
Chain of 72 kDa type IV collagenase (P08253 whole entry): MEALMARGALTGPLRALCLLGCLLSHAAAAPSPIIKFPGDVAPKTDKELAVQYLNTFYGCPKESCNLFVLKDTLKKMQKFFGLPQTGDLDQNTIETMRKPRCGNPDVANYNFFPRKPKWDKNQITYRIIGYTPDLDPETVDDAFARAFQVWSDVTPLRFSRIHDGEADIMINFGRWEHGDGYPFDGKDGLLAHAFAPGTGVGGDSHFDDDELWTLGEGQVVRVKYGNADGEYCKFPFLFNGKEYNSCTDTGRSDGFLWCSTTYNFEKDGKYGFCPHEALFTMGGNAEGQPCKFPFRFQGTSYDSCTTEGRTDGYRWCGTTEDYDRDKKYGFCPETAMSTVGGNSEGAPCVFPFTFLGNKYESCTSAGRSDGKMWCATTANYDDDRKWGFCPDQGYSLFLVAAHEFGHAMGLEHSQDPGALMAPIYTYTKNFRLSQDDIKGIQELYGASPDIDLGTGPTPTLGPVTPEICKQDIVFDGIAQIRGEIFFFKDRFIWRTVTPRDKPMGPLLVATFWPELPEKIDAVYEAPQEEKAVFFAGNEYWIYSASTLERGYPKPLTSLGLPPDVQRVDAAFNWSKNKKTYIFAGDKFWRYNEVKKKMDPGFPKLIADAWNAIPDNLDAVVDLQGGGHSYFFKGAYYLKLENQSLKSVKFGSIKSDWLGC
Chain of Cytochrome P450 3A4 (P08684 whole entry): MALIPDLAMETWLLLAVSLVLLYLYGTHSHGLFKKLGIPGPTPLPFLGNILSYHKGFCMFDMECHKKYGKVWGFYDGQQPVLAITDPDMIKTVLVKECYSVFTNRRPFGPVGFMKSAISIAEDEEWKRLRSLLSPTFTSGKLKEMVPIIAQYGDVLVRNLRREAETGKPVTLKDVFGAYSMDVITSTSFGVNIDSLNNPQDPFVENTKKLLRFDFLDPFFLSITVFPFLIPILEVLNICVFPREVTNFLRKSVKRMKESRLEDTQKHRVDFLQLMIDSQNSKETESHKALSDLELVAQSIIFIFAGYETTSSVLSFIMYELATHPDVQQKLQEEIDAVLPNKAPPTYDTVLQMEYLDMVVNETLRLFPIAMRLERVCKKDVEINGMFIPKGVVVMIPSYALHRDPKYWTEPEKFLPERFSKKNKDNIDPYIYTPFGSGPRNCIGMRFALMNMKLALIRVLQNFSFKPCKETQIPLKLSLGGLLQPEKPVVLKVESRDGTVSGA
Chain of 5-hydroxytryptamine receptor 5A (P47898 whole entry): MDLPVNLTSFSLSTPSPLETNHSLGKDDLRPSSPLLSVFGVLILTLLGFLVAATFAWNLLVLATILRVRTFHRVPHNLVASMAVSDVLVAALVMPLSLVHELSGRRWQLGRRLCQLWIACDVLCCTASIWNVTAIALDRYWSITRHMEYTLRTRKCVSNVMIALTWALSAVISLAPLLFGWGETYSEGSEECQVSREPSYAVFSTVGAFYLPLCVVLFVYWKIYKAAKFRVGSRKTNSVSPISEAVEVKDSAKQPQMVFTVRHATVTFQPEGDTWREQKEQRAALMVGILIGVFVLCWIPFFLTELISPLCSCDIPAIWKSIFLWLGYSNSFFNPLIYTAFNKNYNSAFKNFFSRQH
Chain of Mu-type opioid receptor (P35372 whole entry): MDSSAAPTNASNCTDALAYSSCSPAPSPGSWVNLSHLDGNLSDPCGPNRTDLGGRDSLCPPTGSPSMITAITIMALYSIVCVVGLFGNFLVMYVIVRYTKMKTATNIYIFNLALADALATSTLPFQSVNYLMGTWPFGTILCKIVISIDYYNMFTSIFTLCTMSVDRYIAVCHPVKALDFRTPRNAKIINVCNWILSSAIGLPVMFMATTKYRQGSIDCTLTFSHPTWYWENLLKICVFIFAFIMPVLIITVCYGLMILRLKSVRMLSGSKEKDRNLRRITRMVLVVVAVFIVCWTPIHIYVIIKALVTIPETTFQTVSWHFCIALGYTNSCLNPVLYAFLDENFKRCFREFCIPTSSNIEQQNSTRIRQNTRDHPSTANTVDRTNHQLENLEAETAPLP
Chain of Delta-type opioid receptor (P41143 whole entry): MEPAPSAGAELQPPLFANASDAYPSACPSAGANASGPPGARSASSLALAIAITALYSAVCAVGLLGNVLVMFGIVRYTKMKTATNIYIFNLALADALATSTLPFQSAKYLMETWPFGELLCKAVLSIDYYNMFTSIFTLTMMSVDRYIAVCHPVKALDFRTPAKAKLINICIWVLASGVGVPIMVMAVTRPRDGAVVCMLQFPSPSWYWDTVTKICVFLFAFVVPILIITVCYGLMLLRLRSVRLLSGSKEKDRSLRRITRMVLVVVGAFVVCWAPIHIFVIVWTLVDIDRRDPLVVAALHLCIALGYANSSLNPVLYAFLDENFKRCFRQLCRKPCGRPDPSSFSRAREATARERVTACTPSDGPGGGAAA

With O=C1CCCC2=C1CC(C(=O)OCc1ccccc1)C(=O)N2Cc1ccccc1 (configuration not stated) the AC50 (Escherichia coli [1]) was 13.8 µM (active).

For COc1ccccc1C1N(c2ccc(Cl)cc2)C(=O)C2CCCN21 (configuration not stated), the IC50 (Vero [2]) was > 25 µM (active).

In the case of CCOc1cccc2sc(N(CCCN(C)C)C(=O)c3ccc(S(=O)(=O)N4CCCCCC4)cc3)nc12, the AC50 (Escherichia coli [1]) is reported as > 380 µM (inactive) and the AC50 (Escherichia coli [3]) is reported as 19.6 µM (active).

For Cc1sc2nc(CSc3nnc(Cc4cccs4)n3C3CCCCC3)[nH]c(=O)c2c1C, the IC50 (Prothrombin) was 21.5 µM (active), the IC50 [4] was 15.5 µM (active) and the IC50 [5] was > 100 µM (inactive).

With O=C(Nc1cccnc1)c1cccc(-c2cc3ccccc3oc2=O)c1 the IC50 (Prothrombin) was 53.8 µM (active), the IC50 [4] was 9.88 µM (active) and the IC50 [5] was > 100 µM (inactive).

In the case of CCN=C(S)NCCN1CCOCC1, the AC50 (Escherichia coli [3]) is reported as 24.7 µM (active).

For C[C@@H]1CN([C@@H](C)CO)C(=O)c2cccc(NC(=O)Nc3cccc4ccccc34)c2O[C@H]1CN(C)S(=O)(=O)c1ccc(-c2ccccc2)cc1, the AC50 (INS1) was > 195 µM (inactive).

For COc1cccc(CNc2ccc(N3CCCCC3)cc2)c1OC, the IC50 [6] was 5.96 µM (active), the IC50 [7] was > 50 µM (not active) and the IC50 [8] was 11.5 µM (active).

With CC(=O)C1CCC2C3CC=C4CC(SC(=N)N)CCC4(C)C3CCC12C (configuration not stated) the EC50 [9] was > 92.4 µM (inactive), the EC50 [10] was > 10.3 µM (inactive) and the AC50 [11] was 7.48 µM (active). For the same compound, the EC50 (Mu-type opioid receptor) was > 92.4 µM (inactive).

With CCC(C)C1NC(=O)C2CCCN2C(=O)C(CC(C)C)OC(=O)CCNC(=O)C(C)N(C)C(=O)C(C(C)C)N(C)C1=O (configuration not stated) (cyclo([ξLac(3-iPr)]PI[NMeV][NMeA][βAla]); configuration not given here) the IC50 (Vero [2]) was 8.21 µM (active) and the CC50 (Vero [12]) was > 25 µM (active).

For Cc1ccc(C(=O)COC(=O)c2cc(O)nc3ccccc23)cc1C, the IC50 (Prothrombin) was > 100 µM (inactive), the IC50 [4] was 22.3 µM (active) and the IC50 [5] was > 100 µM (inactive).

In the case of O=C(/C=C/c1ccc(O)c(O)c1)OCCc1ccccc1 [CAFFEIC ACID PHENETHYL ESTER], the AC50 (Cytochrome P450 3A4) is reported as 31.6 µM (inconclusive), the AC50 [13] is reported as 0.877 µM (active) and the AC50 [14] is reported as > 70 µM (inactive). For the same compound, the AC50 [15] was 1.11 µM (active).

With Cc1ccc(-n2nnnc2-c2cnoc2-c2cccc(F)c2)cc1 the AC50 (Escherichia coli [1]) was 126 µM (active) and the AC50 (Escherichia coli [3]) was 24.5 µM (active).

For CCN=c1ccc(Br)cc(C(=O)/C=C/c2ccc(Cl)cc2Cl)c1O, the IC50 (Vero [2]) was 11.6 µM (active), the CC50 (Vero [12]) was 11.1 µM (active) and the IC50 [16] was 3.71 µM (active).

For COc1ccc(S(=O)(=O)N(C)C[C@@H]2Oc3c(NC(=O)Nc4cccc(C(F)(F)F)c4)cccc3C(=O)N([C@@H](C)CO)C[C@H]2C)cc1, the AC50 (INS1) was 134 µM (active).

For CCN(CC)S(=O)(=O)c1cc(NC(=O)C2CCN(c3ncnc4sc(C)c(C)c34)CC2)ccc1Cl, the AC50 [13] was 5.08 µM (active), the AC50 [14] was 7.1 µM (active) and the AC50 [15] was 10.6 µM (active).
